These results are taken from US9487530B2, “Transient protection of normal cells during chemotherapy” (G1 Therapeutics, Inc., priority 2013, dated 2016).

Like-named read-outs stand apart in the source and are kept apart here.

Series [1] is described as follows: Mouse pharmacokinetics, oral gavage and intravenous. In kind it is in vivo.
A further series has as its system HSPCs. Kind of series: Bone marrow HSPC proliferation by EdU incorporation and flow cytometry. In kind it is in vivo, mouse. To be noted: for EdU incorporation into HSPCs compared to control: 150 mg/kg oral gavage, 12 and 24 hours, FIG. 6A. How it is done:
Mice were then sacrificed at the indicated times (0, 12, 24, 36, or 48 hours following compound administration), and bone marrow was harvested (n=3 mice per time point), as previously described (Johnson et al. J. Clin. Invest. (2010) 120(7), 2528-2536). Four hours before the bone marrow was harvested, mice were treated with 100 μg of EdU by intraperitoneal injection (Invitrogen). Bone marrow mononuclear cells were harvested and immunophenotyped using previously described methods and percent EdU positive cells were then determined (Johnson et al. J. Clin. Invest. (2010) 120(7), 2528-2536). In brief, HSPCs were identified by expression of lineage markers (Lin−), ScaI (S+), and c-Kit (K+).
Four hours before animals were sacrificed and the bone marrow was harvested, mice were treated with 100 μg of EdU by intraperitoneal injection. Three mice per group were sacrificed at 12 hours and the remaining three animals per group were sacrificed at 24 hours. Results are shown in FIG. 6A as the ratio of EdU positive cells for treated animals at 12 or 24 hour time points compared to control.
Further experiments were completed with Compound T examining dose response and longer periods of compound treatment. […] […].
Both compounds were administered at 150 mg/kg by oral gavage. One hour prior to harvesting bone marrow, EdU was IP injected to label cycling cells. Bone marrow was harvested at 12, 24, 36, and 48 hours after compound treatment and the percentage of EdU positive HSPC cells was determined at each time point.

The test system of another series is bone marrow progenitors. In words: Carboplatin-induced cytotoxicity in the bone marrow. In kind it is in vivo, mouse. To be noted: 150 mg/kg oral gavage plus 90 mg/kg carboplatin i.p.; 24 hours. How it is done: To assess the effect of transient CDK4/6 inhibition by Compound GG on carboplatin-induced cytotoxicity in the bone marrow, FVB/n mice (n=3 per group) were treated with vehicle control, 90 mg/kg carboplatin by intraperitoneal injection, or 150 mg/kg Compound GG by oral gavage plus 90 mg/kg carboplatin by intraperitoneal injection. 24 hours after treatment bone marrow was harvested and the percent of cycling bone marrow progenitors was measured by EdU incorporation as explained earlier. […] EdU incorporation in control animals was normalized to 100% and compared to EdU incorporation for bone marrow from carboplatin treated animals or carboplatin and Compound GG treated animals.

Series [2] has as its system RB-negative SCLC cell lines (H69, H82, H209, H345, NCI417, SHP-77). Kind of series: EdU proliferation, RB-negative SCLC cell lines. In kind it is cell-based, human. The conditions noted are these: 24 hours treatment. Here is the method: (§1) The effect of Cdk4/6 inhibition on proliferation was measured by EdU incorporation. An RB-intact, Cdk4/6-dependent cell line (WM2664 or tHS68) and a panel of RB-negative SCLC cell lines (H69, H82, H209, H345, NCI417, or SHP-77) were analyzed for growth inhibition by the various CDK4/6 inhibitors.

Series [3] has as its system Rb-positive cell line (WM2664 or tHS68). Kind of series: EdU proliferation, RB-intact Cdk4/6-dependent cell line. In kind it is cell-based. The conditions noted are these: 24 hours treatment. Here is the method: as §1
For another series, the target named is T1, CDK2/CycE (Homo sapiens, UniProt P24941).
T1 construct: Nanosyn (ran the assay as a service)
In words: CDK2/cyclinE kinase assay (Nanosyn, Caliper microfluidic). In kind it is biochemical. How it is done:
Selected compounds disclosed herein were tested in CDK4/cyclinD1, CDK6/CycD3 CDK2/CycA and CDK2/cyclinE kinase assays by Nanosyn (Santa Clara, Calif.) to determine their inhibitory effect on these CDKs. The assays were performed using microfluidic kinase detection technology (Caliper Assay Platform). The compounds were tested in 12-point dose-response format in singlicate at Km for ATP. Phosphoacceptor substrate peptide concentration used was 1 μM for all assays and Staurosporine was used as the reference compound for all assays.

For a further series, the target named is T2, CDK4/CycD1 (Homo sapiens, UniProt P11802).
T2 construct: Nanosyn (ran the assay as a service)
T2 sequence (P11802 whole entry, species assumed): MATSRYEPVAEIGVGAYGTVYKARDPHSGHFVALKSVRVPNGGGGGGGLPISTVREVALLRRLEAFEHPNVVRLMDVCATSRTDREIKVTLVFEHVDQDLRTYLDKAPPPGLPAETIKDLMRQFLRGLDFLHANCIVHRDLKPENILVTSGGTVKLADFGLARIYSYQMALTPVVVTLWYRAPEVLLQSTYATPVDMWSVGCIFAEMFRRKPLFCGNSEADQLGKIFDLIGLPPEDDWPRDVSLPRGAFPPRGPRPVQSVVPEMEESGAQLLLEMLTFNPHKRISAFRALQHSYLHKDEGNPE
T2 sequence (P24385 whole entry partner, species assumed): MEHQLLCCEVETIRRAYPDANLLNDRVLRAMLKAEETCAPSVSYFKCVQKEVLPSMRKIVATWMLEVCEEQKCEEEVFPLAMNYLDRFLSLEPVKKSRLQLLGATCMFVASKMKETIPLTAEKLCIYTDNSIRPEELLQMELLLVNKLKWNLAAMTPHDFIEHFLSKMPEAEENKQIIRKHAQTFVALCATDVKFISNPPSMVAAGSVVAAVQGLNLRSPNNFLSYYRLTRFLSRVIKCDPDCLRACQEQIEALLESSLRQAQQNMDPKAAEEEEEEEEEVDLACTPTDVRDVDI
Kind of series: CDK4/cyclinD1 kinase assay (Nanosyn, Caliper microfluidic). In kind it is biochemical. Here is the method: Selected compounds disclosed herein were tested in CDK4/cyclinD1, CDK6/CycD3 CDK2/CycA and CDK2/cyclinE kinase assays by Nanosyn (Santa Clara, Calif.) to determine their inhibitory effect on these CDKs. The assays were performed using microfluidic kinase detection technology (Caliper Assay Platform). The compounds were tested in 12-point dose-response format in singlicate at Km for ATP. Phosphoacceptor substrate peptide concentration used was 1 μM for all assays and Staurosporine was used as the reference compound for all assays. Specifics of each assay are as described below:
CDK4/CyclinD1: Enzyme concentration: 1 nM; ATP concentration: 200 μM; Incubation time: 10 hr.

The conditions of series [4]: in humans; cited from earlier work.
For series [5] the following is noted: in mice; cited from earlier work.
Series [6] deals with Renal Proximal Tubule Epithelial Cells (Rb-positive). Kind of series: Cellular wash-out experiment, renal proximal tubule epithelial cells. In kind it is cell-based, human. To be noted: 300 nM; compared to cells treated with compounds T, Q, GG, or U. Here is the method: Alternatively, the same experiment was done using normal Renal Proximal Tubule Epithelial Cells (Rb-positive) obtained from American Type Culture Collection (ATCC, Manassas, Va.). Cells were grown in an incubator at 37° C. in a humidified atmosphere of 5% CO2 in Renal Epithelial Cell Basal Media (ATCC) supplemented with Renal Epithelial Cell Growth Kit (ATCC) in 37° C. humidified incubator.
Upon harvesting cells, samples were stained with propidium iodide staining solution and samples run on Dako Cyan Flow Cytometer. The fraction of cells in G0-G1 DNA cell cycle versus the fraction in S-phase DNA cell cycle was determined using FlowJo 7.2.2 analysis.

Series [7] can be described thus: PD0332991 pharmacokinetics and HSPC arrest in humans. In kind it is in vivo, human. The conditions noted are these: single administration. How it is done:
When calculated half-life was longer than the duration of the experiment, the half-life was expressed as >the longest incubation time. The calculated half-life is also listed in parentheses. […] The timely resumption of cellular proliferation is necessary for tissue repair, and therefore an overly long period of arrest is undesirable in healthy cells such as HSPCs. The characteristics of a CDK4/6 inhibitor that dictate its arresting duration are its pharmacokinetic (PK) and enzymatic half-lives. Once initiated, a G1-arrest in vivo will be maintained as long as circulating compound remains at an inhibitory level, and as long as the compound engages the enzyme. […] […]. […] […]. These observations may explain the severe granulocytopenia seen with PD0332991 in the clinic.

In series [8] the test system is HSPC (LKS+) and myeloid progenitor cells (LKS-). The conditions noted are these: single 150 mg/kg oral gavage; FIG. 5; cited from earlier work.

For the compound `O=C1NCC2(CCCCC2)n2c1cc1cnc(Nc3ccc(N4CCNCC4)cn3)nc12` [Q, 2′-((5-(piperazin-1-yl)pyridin-2-yl)amino)-7′,8′-dihydro-6′H-spiro[cyclohexane-1,9′-pyrazino[1′,2′:1,5]pyrrolo[2,3-d]pyrimidin]-6′-one], in [1], the oral bioavailability result was “low”. The “EdU incorporation into HSPCs compared to control” value in the series on HSPCs was “some reduction at 12 hours and started to return to baseline at 24 hours”.
On to `CC(C)N1CCN(c2ccc(Nc3ncc4cc5n(c4n3)C3(CCCCC3)CNC5=O)nc2)CC1` [GG, 2′-((5-(4-isopropylpiperazin-1-yl)pyridin-2-yl)amino)-7′,8′-dihydro-6′H-spiro[cyclohexane-1,9′-pyrazino[1′,2′:1,5]pyrrolo[2,3-d]pyrimidin]-6′-one], for which the “F (oral bioavailability)” value in [1] was 52%. Also, the “cycling bone marrow progenitors (EdU incorporation)” value with bone marrow progenitors was “significant protection of bone marrow progenitors”. The “EdU incorporation into HSPCs compared to control” value in the series on HSPCs is “reduction in EdU incorporation at 12 hours which was starting to return to normal at 24 hours”. Moreover, the “growth (cells in S-phase by EdU)” value in series [2] is recorded as “does not affect the growth”. Also, the “proliferation (cells in S-phase by EdU)” value in series [3] is listed as “inhibits”.
As usually defined, the IC50 is the midpoint of a concentration-inhibition curve. As for `CCC(C)[C@@H]1CNC(=O)c2cc3cnc(Nc4ccc(N5CCNCC5)cn4)nc3n21` (stereo partly shown) [VVV], the IC50 on CDK2/CycE worked out at 4.38 µM; against CDK4/CycD1, 0.0074 µM.
With `CC(=O)c1c(C)c2cnc(Nc3ccc(N4CCNCC4)cn3)nc2n(C2CCCC2)c1=O` [PD0332991, 6-acetyl-8-cyclopentyl-5-methyl-2-(5-piperazin-1-yl-pyridin-2-ylammino)-8H-pyrido-[2,3-d]-pyrimidin-7-one], the figures for the PK half-life in series [4] and in [5] were 27 h and 6 h, respectively. The “time to return to baseline levels of cell division after wash out” value in series [6] is recorded as “significantly longer”. In addition, the “duration of sustained reduction in HSPCs” value with HSPCs (single 150 mg/kg oral dose, FIG. 7) was “greater than 36 hours”. The “growth (cells in S-phase by EdU)” value in [2] was “does not affect the growth”. In addition, the “duration of cell cycle arrest of HSPC” value in series [7] is recorded as “approximately one week”. Besides, the “proliferation (cells in S-phase by EdU)” value in series [3] is “inhibits”. Moreover, in series [8], the “duration of sustained reduction in HSPC and myeloid progenitor cell EdU incorporation” value is “greater than 36 hours”. Also, the “time until HSPC and myeloid progenitor cells return to baseline cell division” value in [8] is 48 h.
As for `O=C1NCC2(CCCCC2)n2c1cc1cnc(Nc3ccc(N4CCC(N5CCOCC5)CC4)cn3)nc12` [U, 2′-((5-(4-morpholinopiperidin-1-yl)pyridin-2-yl)amino)-7′,8′-dihydro-6′H-spiro[cyclohexane-1,9′-pyrazino[1′,2′:1,5]pyrrolo[2,3-d]pyrimidin]-6′-one], the “F (oral bioavailability)” value in series [1] came to 67%.
